Experimental data taken from DBAASP.
In brackets after ≈: the same amount, converted by molar mass.

Key:
Assay in all cases: ≥ marks a high value that may be exact or a test limit, other limits are often not marked, values filed in µg/mL are converted to µM
Escherichia coli K-12 = tested on: Escherichia coli K-12
[1] = tested on: Staphylococcus aureus USA 300
[2] = tested on: Bacillus anthracis Sterne 34F2
[3] = tested on: Bacillus subtilis ATCC 9372
[4] = tested on: Burkholderia thailandensis
Bacillus subtilis 168 = tested on: Bacillus subtilis 168
[5] = tested on: Pseudomonas aeruginosa PAO1
Escherichia coli = tested on: Escherichia coli
Listeria innocua = tested on: Listeria innocua
Micrococcus luteus A270 = tested on: Micrococcus luteus A270
[6] = tested on: Salmonella enterica subsp. enterica serovar Enteritidis
Bacillus megaterium Bm11 = tested on: Bacillus megaterium Bm11
[7] = tested on: Candida albicans ATCC 10231
[8] = tested on: Escherichia coli ATCC 25922
[9] = tested on: Staphylococcus aureus Cowan 1
Staphylococcus capitis 1 = tested on: Staphylococcus capitis 1
[10] = tested on: Yersinia pseudotuberculosis YPIII
[11] = tested on: Bacillus subtilis ATCC 6633
[12] = tested on: Klebsiella pneumoniae ATCC 10031
[13] = tested on: Micrococcus luteus ATCC 10240
[14] = tested on: Pseudomonas aeruginosa ATCC 27853
[15] = tested on: Salmonella enterica subsp. enterica serovar Typhimurium ATCC 14028
[16] = tested on: Shigella dysenteriae ATCC 9752
[17] = tested on: Staphylococcus aureus ATCC 6538P
[18] = tested on: Staphylococcus epidermidis ATCC 12228
[19] = tested on: Mycobacterium tuberculosis H37Rv
[20] = tested on: Clavibacter michiganensis subsp. michiganensis DSM 46294
[21] = tested on: Pectobacterium carotovorum subsp. carotovorum DSM 30168
[22] = tested on: Pseudomonas corrugata DSM 7228
[23] = tested on: Pseudomonas syringae pv. syringae DSM 10604
[24] = tested on: Pseudomonas syringae pv. tomato DC3000
[25] = tested on: Xanthomonas vesicatoria DSM 50861
[26] = tested on: Salmonella enterica serovar Typhimurium
[27] = tested on: Staphylococcus aureus ATCC 25923

`CC[C@H](C)[C@H](NC(=O)[C@H](CCCN=C(N)N)NC(=O)[C@H](CCC(N)=O)NC(=O)[C@@H](NC(=O)[C@@H](NC(=O)[C@H](CCCN=C(N)N)NC(=O)[C@H](CCCCN)NC(=O)[C@H](Cc1ccccc1)NC(=O)[C@H](CCC(=O)O)NC(=O)CN)[C@@H](C)CC)C(C)C)C(=O)N[C@@H](CCCCN)C(=O)N[C@@H](CC(=O)O)C(=O)N[C@@H](Cc1ccccc1)C(=O)N[C@@H](CC(C)C)C(=O)N[C@@H](CCCN=C(N)N)C(=O)N[C@@H](CC(N)=O)C(=O)N[C@@H](CC(C)C)C(=O)N[C@H](C(N)=O)C(C)C` [GEFKRIVQRIKDFLRNLV] was tested, and the MIC (Escherichia coli K-12) was at least 60 µM and the MIC [1] was at least 60 µM.

In the case of `CC(=O)N[C@@H](C)C(=O)N[C@@H](CCC(=O)O)C(=O)N[C@@H](CCCN=C(N)N)C(=O)N[C@H](C(=O)NCC(=O)N[C@@H](C)C(=O)NCC(=O)N[C@@H](C)C(=O)N1CCC[C@H]1C(=O)N[C@H](C(=O)N[C@@H](Cc1ccc(O)cc1)C(=O)N[C@@H](CC(C)C)C(N)=O)C(C)C)C(C)C` [AERVGAGAPVYL], the MIC [2] is reported as at least 100 µM, the MIC [3] is reported as at least 100 µM and the MIC [4] is reported as at least 50 µM.

Compound `CC(C)C[C@H](NC(=O)[C@H](CC(C)C)NC(=O)[C@H](CCCCN)NC(=O)CNC(=O)[C@H](CC(C)C)NC(=O)[C@H](CC(C)C)NC(=O)[C@H](CO)NC(=O)[C@H](CC(C)C)NC(=O)[C@H](CC(C)C)NC(=O)[C@@H]1CCCN1C(=O)[C@H](CC(C)C)NC(=O)[C@H](CC(C)C)NC(=O)CN)C(N)=O` [GLLPLLSLLGKLL] has an MIC (Bacillus subtilis 168) of 3.12 µM (≈ 4.21 µg/mL), an MIC (Escherichia coli K-12) of 25 µM (≈ 33.7 µg/mL) and an MIC [5] of over 100 µM. The MIC [1] was 1.56 µM (≈ 2.1 µg/mL).

With `CSCC[C@H](N)C(=O)N[C@@H](CC(C)C)C(=O)N[C@H](C(=O)N[C@@H](C)C(=O)N[C@@H](CCC(=O)O)C(=O)N[C@@H](CCC(=O)O)C(=O)N[C@@H](CCCCN)C(=O)N[C@@H](C)C(=O)N[C@@H](C)C(=O)N[C@H](C(=O)N[C@H](C(=O)N[C@@H](C)C(=O)N[C@@H](Cc1ccccc1)C(=O)O)[C@@H](C)O)C(C)C)[C@@H](C)O` [MLTAEEKAAVTAF] the MIC (Escherichia coli) was 4 µM (≈ 5.53 µg/mL), the MIC (Listeria innocua) was 6 µM (≈ 8.29 µg/mL) and the MIC (Micrococcus luteus A270) was 4 µM (≈ 5.53 µg/mL). It also gave an MIC [6] of 6 µM (≈ 8.29 µg/mL).

In the case of `CC[C@H](C)[C@H](NC(=O)CNC(=O)[C@H](C)NC(=O)[C@H](CC(C)C)NC(=O)[C@@H](NC(=O)[C@H](CCCN=C(N)N)NC(=O)CNC(=O)[C@@H](NC(=O)[C@H](CC(C)C)NC(=O)[C@@H]1CCCN1C(=O)[C@H](CC(C)C)NC(=O)[C@@H](N)Cc1ccccc1)[C@@H](C)CC)C(C)C)C(=O)N[C@@H](CC(C)C)C(N)=O` [FLPLIGRVLAGIL], the MIC (Bacillus megaterium Bm11) is reported as 2.5 µM (≈ 3.45 µg/mL), the MIC [7] is reported as 2.5 µM (≈ 3.45 µg/mL) and the MIC [8] is reported as over 40 µM. For the same compound, the MIC [9] was 2.5 µM (≈ 3.45 µg/mL), the MIC (Staphylococcus capitis 1) was 5 µM (≈ 6.9 µg/mL) and the MIC [10] was 20 µM (≈ 27.6 µg/mL).

Work on `CC(C)C[C@H](NC(=O)[C@H](Cc1c[nH]c2ccccc12)NC(=O)CNC(=O)[C@H](CC(C)C)NC(=O)[C@@H](N)Cc1ccccc1)C(=O)N[C@@H](Cc1ccccc1)C(=O)N[C@@H](CCCCN)C(=O)N[C@@H](Cc1c[nH]c2ccccc12)C(=O)N[C@@H](C)C(=O)N[C@@H](Cc1c[nH]c2ccccc12)C(=O)N[C@@H](CCCCN)C(N)=O` [FLGWLFKWAWK] yielded an MIC [11] of 4.25 µM (≈ 6.3 µg/mL), an MIC [8] of 16.9 µM (≈ 25 µg/mL) and an MIC [12] of 8.44 µM (≈ 12.5 µg/mL). It also gave an MIC [13] of 2.09 µM (≈ 3.1 µg/mL), an MIC [14] of over 135 µM and an MIC [15] of 67.5 µM (≈ 99.9 µg/mL). For the same compound, the MIC [16] was 8.44 µM (≈ 12.5 µg/mL), the MIC [17] was 4.25 µM (≈ 6.3 µg/mL) and the MIC [18] was 4.25 µM (≈ 6.3 µg/mL).

`C[C@H](NC(=O)[C@@H]1CCCN1C(=O)[C@H](CCC(=O)O)NC(=O)[C@H](CCC(N)=O)NC(=O)[C@H](CCCCN)NC(=O)[C@@H]1CCCN1C(=O)[C@H](C)NC(=O)[C@@H]1CCCN1C(=O)[C@H](CCCCN)NC(=O)[C@@H]1CCCN1C(=O)[C@H](CCCCN)NC(=O)[C@@H](NC(=O)[C@@H](NC(=O)[C@H](CCCN=C(N)N)NC(=O)[C@@H]1CCCN1C(=O)[C@H](CCCCN)NC(=O)[C@@H](N)CCCN=C(N)N)[C@@H](C)O)[C@@H](C)O)C(=O)N[C@H](C(=O)N[C@@H](CCC(=O)O)C(=O)N[C@@H](CCC(=O)O)C(=O)O)[C@@H](C)O` [RKPRTTKPKPAPKQEPATEE] gave an MIC [19] of at least 87.4 µM.

`CC[C@H](C)[C@H](NC(=O)[C@H](C)NC(=O)[C@H](CC(C)C)NC(=O)[C@H](CCCN=C(N)N)NC(=O)[C@H](CC(C)C)NC(=O)[C@@H](NC(=O)[C@H](CCCN=C(N)N)NC(=O)[C@H](CC(C)C)NC(=O)[C@@H](NC(=O)[C@H](CC(C)C)NC(=O)[C@H](CCCN=C(N)N)NC(=O)[C@H](CCCN=C(N)N)NC(=O)[C@@H](N)CCCCN)[C@@H](C)CC)[C@@H](C)CC)C(=O)N[C@@H](CCCN=C(N)N)C(=O)N[C@H](C(=O)N[C@@H](CC(C)C)C(=O)N[C@H](C(=O)N[C@@H](CCCCN)C(=O)N[C@@H](CCCCN)C(=O)N[C@@H](CCCN=C(N)N)C(N)=O)C(C)C)[C@@H](C)CC` [KRRLILRILRLAIRILVKKR] gave an MIC [20] of 0.989 µM (≈ 2.5 µg/mL), an MIC [21] of 3.96 µM (≈ 10 µg/mL) and an MIC [22] of 3.96 µM (≈ 10 µg/mL). It also gave an MIC [23] of 3.96 µM (≈ 10 µg/mL), an MIC [24] of 3.96 µM (≈ 10 µg/mL) and an MIC [25] of 0.989 µM (≈ 2.5 µg/mL).

Work on `CC(C)C[C@H](NC(=O)[C@H](CCC(=O)O)NC(=O)[C@@H](NC(=O)[C@H](CC(=O)O)NC(=O)[C@H](CCCCN)NC(=O)[C@H](CC(N)=O)NC(=O)[C@H](C)NC(=O)[C@H](CCCCN)NC(=O)[C@H](CCCCN)NC(=O)CNC(=O)[C@H](CCCCN)NC(=O)[C@@H](N)CO)C(C)C)C(=O)N[C@@H](C)C(=O)N[C@@H](CCCN=C(N)N)C(=O)NCC(=O)O` [SKGKKANKDVELARG] yielded an MIC [2] of at least 100 µM, an MIC [3] of at least 100 µM and an MIC [4] of at least 50 µM.

For `CC[C@H](C)[C@H](NC(=O)[C@@H](NC(=O)[C@H](CS)NC(=O)[C@@H](NC(=O)[C@H](CCCN=C(N)N)NC(=O)[C@H](CS)NC(=O)[C@H](CCCN=C(N)N)NC(=O)[C@H](CC(C)C)NC(=O)[C@H](CCC(N)=O)NC(=O)[C@@H](N)C(C)C)C(C)C)C(C)C)C(=O)N[C@@H](CCCN=C(N)N)C(=O)N[C@@H](CCCCN)C(=O)O` [VQLRCRVCVIRK], the MIC [8] was 21.7 µM (≈ 32 µg/mL), the MIC [5] was 43.5 µM (≈ 64 µg/mL) and the MIC [26] was 21.7 µM (≈ 32 µg/mL). The MIC [27] was 43.5 µM (≈ 64 µg/mL).
